Experimental data taken from patent US20250195660A1, “INACTIVATING BACTERIA WITH ELECTRIC PULSES AND ANTIBIOTICS” (Purdue Research Foundation, priority 2018, published 2025).

Tested on: Stapphylococcus aureus (gram positive bacterium number 25923)
Assay: Inactivation of S. aureus by 300 ns electric pulses combined with antibiotic (CFU plating)
Format: cell-based, Staphylococcus aureus
Method: Equipment. Used was a capacitor based Blumlein pulse generator with a spark gap switch to produce trapezoidal EPs of 300 ns duration at the peak with rise and fall times close to 50 ns. Multiple pulses were delivered at a frequency of 1 Hz.
The samples were treated in a standard electroporation cuvette (Dot Scientific) whose resistance must match the pulse generator's impedance to prevent pulse reflection. Utilizing Luria broth, containing 0.5% NaCl, in a cuvette with gap distances of 1 mm and 2 mm yielded the best electrical match (no reflections in the measured signal). Used were 2 mm cuvettes to ensure consistency between tests, and the applied voltage was measured across the cuvette using a LeCroy PPE 20 kV high voltage probe with a 1000:1 attenuation feeding into a TeleDyne LeCroy Waverunner 6 Zi Oscilloscope capable of measuring signals up to 4 GHz. Assuming a purely parallel plate geometry with minimal fringing gives an electric field E=V/d, where V is the peak voltage of the applied pulse and d is the gap distance.
Sample Preparation. These experiments assessed Stapphylococcus aureus (gram positive bacterium number 25923) from ATCC and Esherichia coli (gram negative bacterium number 25922) inoculated in luria broth (LB Broth Lennox, powder microbial growth medium. SIGMA-ALDRICH) by taking 8 mL of broth in a 50 mL sterile conical tube and incubating in a shaker for 20 h at 37° C. The sample was then diluted with fresh Luria broth until attaining an optical density of 0.25 for 100 μL on a photospectrometer (Molecular Devices) for a wavelength of 562 nm as measured in a 96-well plate. The optical density, which varies with growth or tube volume, was determined experimentally and set between 1×10^8 and 1.5×10^8 colony forming units (CFUs)/mL for the samples to be pulsed. These samples were then plated at dilutions between 10-6 and 100 (no dilution) depending on the effectiveness of the pulse treatments.
Electric Pulse Treatment Protocol. […] Although no consensus exists on a universal scaling law for applied EP “dose,” we fixed the energy density
[formula] • where N is the number of pulses and τ is the pulse duration. Fixing U for E=40, 30, and 20 kV/cm gave N=250, 445, and 1000 pulses, respectively. Cultures were plated as described below.
Cuvettes were filled with 365 μL of sample (sufficient to just cover the electrodes) and then 250 μL of molecular biology grade mineral oil was placed on top. Keeping the samples on ice upon achieving the required dilution further reduced experimental variability by slowing biological processes, such as fission This facilitated the assessment of the inactivation efficiency of EPs, drugs, and combined treatments.
Tests used the clinically relevant, bactericidal drug tobramycin, which targets the 30S and 50S ribosome complex and has a clinical dose from 4 to 5 μg/mL and rifampicin, which inhibits bacterial […]. Added were 0.2, 2, and 20 μg/mL of each drug to the initial bacterial dilutions prior to pulsing. Samples were immediately placed on ice to minimize cell division and reduce variability. These aliquots were also used to plate individual unpulsed controls for each drug concentration.
Plating. Plating was done on standard disposable tissue culture Petri dishes from VWR (15 cm diameter, 10 mm height) and covered with 10 mL of agar in luria broth (Agar, microbiology tested powder, SIGMA-ALDRICH), which was prepared by adding 20 g of LB lennox (SIGMA-ALDRICH) and 15 g/L of agar to water and then autoclaved.
Plated were samples at dilutions of 10^−6 and 10^−3 for low and high electric field treatments, respectively, and at 10^−6 and 10^−5 for controls All samples containing 100 μL of pulsed or diluted cultures were plated on LB agar plates and counted after overnight incubation at 37° C. […]

Measured: log-reduction of S. aureus

CO[C@H]1/C=C/O[C@@]2(C)Oc3c(C)c(O)c4c(O)c(c(/C=N/N5CCN(C)CC5)c(O)c4c3C2=O)NC(=O)/C(C)=C\C=C\[C@H](C)[C@H](O)[C@@H](C)[C@@H](O)[C@@H](C)[C@H](OC(C)=O)[C@@H]1C [rifampicin]
1 log: 20 kV/cm EPs + 0.2 μg/mL | 20 kV/cm EPs + 2 μg/mL | 20 kV/cm EPs + 20 μg/mL
